Measurements taken from patent US12653191B2, “Active compound combinations” (Bayer Aktiengesellschaft, priority 2020, dated 2026).
Where two headings read alike, the source gives them in different places.

Experiments:
Alternaria alternata = assay: in vitro-Test with fungal microorganisms, Method B (tables A13-A22); format: cell-based; settings: for inhibition of growth at 0.04 ppm / inhibition of growth at 0.2 ppm / inhibition of growth at 1 ppm / inhibition of growth at 0.008 ppm: Alternaria alternata, read-out: Efficacy
Experimental: (§1) Example: In Vitro-Test with Fungal Microorganisms
(§2) Wells of 96-well microtiter plates are filled with 30 μl of a preparation of test compound or compound combination in methanol+emulsifier alkylaryl-polyglycol-ether. Thereafter, the solvent is evaporated in a hood. At the next step, 200 μl of liquid growth medium is given, that has been amended with an appropriate concentration of spores or mycelium suspension of the test fungus.
(§3) With the aid of a photometer, the extinction in all wells is measured at the wavelength of 600 nm.
(§4) The microtiter plates are incubated for 3 to 7 days at 20° C. and 85% relative humidity. After the incubation inhibition of growth is determined photometrically. Efficacy is calculated in relation to the untreated control, 0% efficacy means fungal growth as high as in untreated control while 100% efficacy means no fungal growth is measured.
(§5) The data in tables A1 to A12, B1 to B14, C1 to C10, D1 to D8, E1 to E8, F1 to F11, G1 to G4, H1 to H4 and I1 to I5 were collected according to Method A. The data in tables A13 to A22, B15 to B18, C11 to C20, E9 to E16, F12 to F15, G5 to G15, H5 to H8, I6 to I11 and J1 to J11 were collected according to Method B.

Botrytis cinerea [1] = assay: in vitro-Test with fungal microorganisms, Method B (tables B15-B18); format: cell-based
Experimental: as §1, §2, §3, §4, §5

Fusarium culmorum = assay: in vitro-Test with fungal microorganisms, Method B (tables G5-G15); format: cell-based; settings: for inhibition of growth at 0.008 ppm / inhibition of growth at 0.04 ppm / inhibition of growth at 0.2 ppm / inhibition of growth at 1 ppm: Fusarium culmorum, alone, read-out: Efficacy
Experimental: as §1, §2, §3, §4, §5

[2] = tested on: Ustilago segetum var. avenae; assay: in vitro-Test with fungal microorganisms, Method B (tables I6-I11); format: cell-based; settings: alone
Experimental: as §1, §2, §3, §4, §5

Cercospora beticola [3] = assay: in vitro-Test with fungal microorganisms, Method B (tables C11-C20); format: cell-based
Experimental: as §1, §2, §3, §4, §5

Cordana musae = assay: in vitro-Test with fungal microorganisms, Method B (tables E9-E16); format: cell-based; settings: Neocordana musae, single active, read-out: Efficacy
Experimental: as §1, §2, §3, §4, §5

Alternaria alternate = assay: in vitro-Test with fungal microorganisms, Method A (tables A1-A12); format: cell-based, Alternaria alternata; settings: Alternaria, applied alone, read-out: Efficacy %
Experimental: as §1
as §2, with “10” for “30”, “100” for “200”, “potato dextrose” for “growth”, “given into each well,” for “given,”
(§6) With the aid of a photometer, the extinction in all wells is measured at the wavelength of 620 nm.
as §4, with “incubated” for “incubated for 3 to 7 days”, “The” for “After the incubation”, “again photometrically 3-5 days after the application.” for “photometrically.”
as §5

Botrytis cinerea [4] = assay: in vitro-Test with fungal microorganisms, Method A (tables B1-B14); format: cell-based; settings: Botrytis cinerea, read-out: Efficacy
Experimental: as §1
as §2, with “10” for “30”, “100” for “200”, “potato dextrose” for “growth”, “given into each well,” for “given,”
as §6
as §4, with “incubated” for “incubated for 3 to 7 days”, “The” for “After the incubation”, “again photometrically 3-5 days after the application.” for “photometrically.”
as §5

Cercospora beticola [5] = assay: in vitro-Test with fungal microorganisms, Method A (tables C1-C10); format: cell-based; settings: Cercospora beticola, read-out: Efficacy %
Experimental: as §1
as §2, with “10” for “30”, “100” for “200”, “potato dextrose” for “growth”, “given into each well,” for “given,”
as §6
as §4, with “incubated” for “incubated for 3 to 7 days”, “The” for “After the incubation”, “again photometrically 3-5 days after the application.” for “photometrically.”
as §5

Diaporthe citri = assay: in vitro-Test with fungal microorganisms, Method A (tables F1-F11); format: cell-based; settings: Diaporthe citri, single active, read-out: Efficacy
Experimental: as §1
as §2, with “10” for “30”, “100” for “200”, “potato dextrose” for “growth”, “given into each well,” for “given,”
as §6
as §4, with “incubated” for “incubated for 3 to 7 days”, “The” for “After the incubation”, “again photometrically 3-5 days after the application.” for “photometrically.”
as §5

[6] = tested on: Ustilago segetum var. avenae; assay: in vitro-Test with fungal microorganisms, Method A (tables I1-I5); format: cell-based; settings: alone, read-out: Efficacy %
Experimental: as §1
as §2, with “10” for “30”, “100” for “200”, “potato dextrose” for “growth”, “given into each well,” for “given,”
as §6
as §4, with “incubated” for “incubated for 3 to 7 days”, “The” for “After the incubation”, “again photometrically 3-5 days after the application.” for “photometrically.”
as §5

Colletotrichum coccodes = assay: in vitro-Test with fungal microorganisms, Method B (tables J1-J11); format: cell-based; settings: Colletotrichum coccodes, applied alone, read-out: Efficacy %
Experimental: as §1, §2, §3, §4, §5

[7] = Botrytis cinerea, 1 ppm alone, read-out: Efficacy %

N#Cc1ccc(Oc2ccc(C(F)(F)C(O)(Cn3[nH]cnc3=S)c3ccc(F)cc3F)nc2)cc1 (stereo not shown) [fluoxytioconazole]
Efficacy (Alternaria alternata; single compound, 0.008 ppm): 5%
Efficacy % (Botrytis cinerea [1]; 0.008 ppm alone): 0%
Efficacy % (Botrytis cinerea [1]; 0.2 ppm alone): 0%
Efficacy % (Botrytis cinerea [1]; 1 ppm alone): 13%
Efficacy (Fusarium culmorum; 0.008 ppm alone): 12%
Efficacy (Fusarium culmorum; 1 ppm alone): 27%
Efficacy % ([2]; 0.008 ppm): 8%
Efficacy % ([2]; 0.04 ppm): 35%
Efficacy % ([2]; 0.2 ppm): 100%

Cc1ccc(C[C@H]2CON=C(c3cc(C)nnc3Oc3cccc(Cl)c3F)N2)c(Cl)c1 [Compound I-339, (5S)-3-[3-(3-chloro-2-fluoro-phenoxy)-6-methylpyridazin-4-yl]-5-(2-chloro-4-methylbenzyl)-5,6-dihydro-4H-1,2,4-oxadiazine]
inhibition of growth at 0.04 ppm (Alternaria alternata; single compound): 100%
inhibition of growth at 0.2 ppm (Alternaria alternata; single compound): 100%
inhibition of growth at 1 ppm (Alternaria alternata; single compound): 100%
inhibition of growth at 0.008 ppm (Cercospora beticola [3]; Cercospora beticola, 0.008 ppm, read-out: Efficacy %): 28%
inhibition of growth at 0.04 ppm (Cercospora beticola [3]; Cercospora beticola, 0.04 ppm, read-out: Efficacy %): 0%
inhibition of growth at 0.2 ppm (Cercospora beticola [3]; Cercospora beticola, 0.2 ppm, read-out: Efficacy %): 61%
inhibition of growth at 1 ppm (Cercospora beticola [3]; Cercospora beticola, 1 ppm, read-out: Efficacy %): 98%
inhibition of growth at 0.008 ppm (Cordana musae; 0.008 ppm): 63%
inhibition of growth at 0.04 ppm (Cordana musae; 0.04 ppm): 100%
inhibition of growth at 0.2 ppm (Cordana musae; 0.2 ppm): 100%
inhibition of growth at 1 ppm (Cordana musae; 1 ppm): 100%
inhibition of growth at 0.008 ppm (Fusarium culmorum): 0%
inhibition of growth at 0.04 ppm (Fusarium culmorum): 0%
inhibition of growth at 0.2 ppm (Fusarium culmorum): 14%
inhibition of growth at 1 ppm (Fusarium culmorum): 99%
inhibition of growth at 0.008 ppm ([2]; 0.008 ppm, read-out: Efficacy %): 2%
inhibition of growth at 0.04 ppm ([2]; 0.04 ppm, read-out: Efficacy %): 0%
inhibition of growth at 0.2 ppm ([2]; 0.2 ppm, read-out: Efficacy %): 0%
inhibition of growth at 1 ppm ([2]; 1 ppm, read-out: Efficacy %): 0%

CS(=O)(=O)Oc1cccc(Cl)c1C1CC(c2csc(C3CCN(C(=O)Cn4nc(C(F)F)cc4C(F)F)CC3)n2)=NO1 (stereo not shown) [fluoxapiprolin]
Efficacy (Alternaria alternata; 4 ppm): 0%
Efficacy (Alternaria alternata; 20 ppm): 1%
Efficacy (Alternaria alternata; single compound, 0.8 ppm): 0%
Efficacy % (Botrytis cinerea [1]; 0.8 ppm, alone): 0%
Efficacy % (Botrytis cinerea [1]; 4 ppm alone): 6%
Efficacy % (Botrytis cinerea [1]; 20 ppm alone): 5%
Efficacy % (Cercospora beticola [3]; 20 ppm): 0%

Cc1ccc(CC2CON=C(c3cc(C)nnc3Oc3cccc(C4CC4)c3F)N2)c(C)c1 (racemic) [Compound I-052, rac-3-[3-(3-cyclopropyl-2-fluorophenoxy)-6-methylpyridazin-4-yl]-5-[(2,4-dimethylphenyl)methyl]-5,6-dihydro-4H-1,2,4-oxadiazine]
inhibition of growth at 0.0008 ppm (Alternaria alternate; 0.0008 ppm): 2%
inhibition of growth at 0.004 ppm (Alternaria alternate; 0.004 ppm): 0%
inhibition of growth at 0.02 ppm (Alternaria alternate; 0.02 ppm): 9%
inhibition of growth at 0.1 ppm (Alternaria alternate; 0.1 ppm): 72%
inhibition of growth at 0.0008 ppm (Botrytis cinerea [4]; 0.0008 ppm): 0%
inhibition of growth at 0.004 ppm (Botrytis cinerea [4]; 0.004 ppm): 0%
inhibition of growth at 0.02 ppm (Botrytis cinerea [4]; 0.02 ppm): 0%
inhibition of growth at 0.1 ppm (Botrytis cinerea [4]; 0.1 ppm): 88%
inhibition of growth at 0.0008 ppm (Cercospora beticola [5]; 0.0008 ppm alone): 0%
inhibition of growth at 0.004 ppm (Cercospora beticola [5]; 0.004 ppm alone): 0%
inhibition of growth at 0.02 ppm (Cercospora beticola [5]; 0.02 ppm alone): 0%
inhibition of growth at 0.1 ppm (Cercospora beticola [5]; 0.1 ppm alone): 20%
inhibition of growth at 0.0008 ppm (Diaporthe citri; 0.0008 ppm): 0%
inhibition of growth at 0.004 ppm (Diaporthe citri; 0.004 ppm): 0%
inhibition of growth at 0.02 ppm (Diaporthe citri; 0.02 ppm): 100%
inhibition of growth at 0.1 ppm (Diaporthe citri; 0.1 ppm): 100%
inhibition of growth at 0.0008 ppm ([6]; 0.0008 ppm): 2%
inhibition of growth at 0.004 ppm ([6]; 0.004 ppm): 3%
inhibition of growth at 0.02 ppm ([6]; 0.02 ppm): 0%
inhibition of growth at 0.1 ppm ([6]; 0.1 ppm): 0%

CCO[PH](=O)O [fosetyl-al]
Efficacy % (Botrytis cinerea [1]; 4 ppm alone): 2%
Efficacy % (Botrytis cinerea [1]; 100 ppm alone): 0%

Cc1ccc(C[C@@H]2CON=C(c3cc(C)nnc3Oc3cccc(Cl)c3F)N2)c(Cl)c1 [Compound I-338, (5R)-3-[3-(3-chloro-2-fluorophenoxy)-6-methylpyridazin-4-yl]-5-(2-chloro-4-methylbenzyl)-5,6-dihydro-4H-1,2,4-oxadiazine]
Efficacy (Alternaria alternata; 0.008 ppm): 0%
inhibition of growth at 0.008 ppm (Alternaria alternata; 0.008 ppm): 0%
inhibition of growth at 1 ppm (Botrytis cinerea [1]; [7]): 85%
inhibition of growth at 0.008 ppm (Fusarium culmorum): 22%
inhibition of growth at 0.04 ppm (Fusarium culmorum): 21%
inhibition of growth at 0.2 ppm (Fusarium culmorum): 0%
inhibition of growth at 1 ppm (Fusarium culmorum): 0%

Cc1ccc(C[C@H]2CON=C(c3cc(C)nnc3Oc3cccc(C4CC4)c3F)N2)c(C)c1 [Compound I-130, (5S)-3-[3-(3-cyclopropyl-2-fluorophenoxy)-6-methylpyridazin-4-yl]-5-(2,4-dimethylbenzyl)-5,6-dihydro-4H-1,2,4-oxadiazine]
inhibition of growth at 0.008 ppm (Alternaria alternata; 0.008 ppm): 25%
inhibition of growth at 0.04 ppm (Alternaria alternata): 100%
inhibition of growth at 0.2 ppm (Alternaria alternata): 100%
inhibition of growth at 1 ppm (Alternaria alternata): 100%
inhibition of growth at 0.008 ppm (Botrytis cinerea [1]; Botrytis cinerea, 0.008 ppm alone, read-out: Efficacy %): 96%
inhibition of growth at 0.04 ppm (Botrytis cinerea [1]; Botrytis cinerea, 0.04 ppm alone, read-out: Efficacy %): 100%
inhibition of growth at 0.2 ppm (Botrytis cinerea [1]; Botrytis cinerea, 0.2 ppm alone, read-out: Efficacy %): 100%
inhibition of growth at 1 ppm (Botrytis cinerea [1]; [7]): 100%
inhibition of growth at 0.008 ppm (Colletotrichum coccodes; 0.008 ppm): 94%
inhibition of growth at 0.04 ppm (Colletotrichum coccodes; 0.04 ppm): 100%
inhibition of growth at 0.2 ppm (Colletotrichum coccodes; 0.2 ppm): 100%
inhibition of growth at 1 ppm (Colletotrichum coccodes; 1 ppm): 100%
